Measured values as given in patent US6849663B2, “2-Aminotetralines, a process for their preparation, and pharmaceutical compositions, for the prevention and therapeutic treatment of inflammatory and/or autoimmune pathologies” (Sigma-Tau Industrie Farmaceutiche Riunite S.p.A., priority 1997, dated 2005).
“And” between values parts separate entries of the source, which are not always exact repeats. Identical values can stand only once. Counter-ions that a name gives are not always drawn. Like-named read-outs stand apart in the source and are kept apart here.

Columns and labels:
[1] = test system: SEB (Staphylococcus aureus) enterotoxin; design: species or system mice; details: mouse, in vivo
S. typhosa LPS = test system: S. typhosa LPS; design: species or system mice; details: mouse, in vivo; for Survival increase (%): iv
E. coli LPS = test system: E. coli LPS; design: species or system mice; details: mouse, in vivo
TNF [2] = assay: TNF production induced by LPS in rat blood culture; assay type: cell-based
IFN-γ = test system: IFN-γ; design: species or system mice; details: mouse, in vivo
TNF [3] = test system: TNF; design: species or system mice; details: mouse, in vivo
IL-1β = test system: IL-1β; design: species or system mice; details: mouse, in vivo
TNF [4] = test system: TNF; design: species or system mice; details: mouse, in vivo; remark: listed apart in the source
IL-6 = test system: IL-6; design: species or system mice; details: mouse, in vivo
TNF [5] = assay: Serum TNF after Salmonella typhosa LPS in mice; assay type: in vivo; details: 6 mg/kg i.v., −30/+5 min schedule, LPS control 154.2
Experimental: Animals were treated intraperitoneally (i.p.) with S. typhosa LPS. Prior to use, the endotoxin was first dissolved in sterile saline and then injected in a volume of 200 μL, at the dose of 27.0 mg/kg, corresponding to about the LD80.
The compounds tested were administered intravenously (i.v.) in a volume of 200 μL of sterile saline at the dose approximately corresponding to 1/10 LD50, 30 min before and again 5 min after the endotoxic challenge (LPS).
In both experimental models, blood samples were taken 90 min after the challenge (peak serum TNF level).
Ether-anaesthetised mice were bled by retro-orbital sinus puncture.
Blood samples were incubated at room temperature for 2 h and the serum thus obtained was centrifuged for 20 min at 3000 rpm and stored at −80° C. pending TNF assay.
TNF biological activity was determined in RPMI medium containing 1% FCS.
50 μL/well of serial dilutions of samples containing TNF were added directly to the Primaria microtiter plates.
The experimental conditions utilised were the same as those previously described.
Data were analysed statistically using the one-tailed Student's t test.

| SMILES | Dead/Total [1] | Survival increase (%) ([1]; iv) | Dead/Total (S. typhosa LPS) | effect on lethality (in words) (S. typhosa LPS) | Survival increase (%) (S. typhosa LPS) | Dead/Total (E. coli LPS) | Survival increase (%) (E. coli LPS; iv) | other results |
| --- | --- | --- | --- | --- | --- | --- | --- | --- |
| CC(=O)c1cc2c(cc1C)CC[C@@H](N)C2.Cl (racemic) [ST 1274, (R,S)-7-acetyl-2-amino-6-methyltetraline hydrochloride] | 0/10 | +90% | 10/20 | significantly reduce the lethality | +40% | 5/10 |  |  |
| Cl.N[C@@H]1CCc2cc(F)c(O)cc2C1 [ST 1238, R(+)-2-amino-6-fluoro-7-hydroxytetraline hydrochloride] |  | +70% |  |  |  |  | +60% | Survival increase (%) [1]: +70%; protective effect (in words) [1]: extremely significant protective effect; Dead/Total ([1]; hydrochloride): 1/20 and 4/20; TNF (mean % values) (TNF [2]): 61%; reduction of TNF production (TNF [2]; rat blood cultures stimulated with LPS, compound 50 μM): 39%; IFN-γ (pg/mL) Mean (IFN-γ): 25 pg/mL; effect on IFN-γ production (in words) (IFN-γ): significantly reduces the production; effect on TNF levels (in words) (TNF [3]): significantly reduces TNF levels; IL-1β (pg/mL) Mean (IL-1β): 0.9 pg/mL; TNF (U/mL) Mean (TNF [4]): 6.2 U/mL; TNF (U/mL) mean (TNF [4]): 27.0 U/mL; effect on TNF production (in words) (TNF [4]): significantly reduces TNF production; Survival increase (%) (E. coli LPS): +44%; effect on lethality (in words) (E. coli LPS): significantly reduces the lethality; Dead/Total (E. coli LPS; hydrochloride): 5/20 and 7/19; IL-6 (pg/mL) Mean (IL-6): 599 pg/mL; effect on IL-6 production (in words) (IL-6): significantly reduces the production |
| Cc1cc2c(cc1F)CC[C@@H](N)C2.Cl (racemic) [ST 1275, (R,S)-2-amino-6-fluoro-7-methyltetraline hydrochloride] | 1/10 | +80% | 6/10 | significantly reduce the lethality | +40% | 5/10 |  |  |
| COc1cc2c(cc1F)CC[C@@H](N)C2 (racemic) [ST 626, (R,S)-2-amino-6-fluoro-7-methoxytetraline hydrochloride, reference compound] |  |  | 6/20 |  | +40% | 21/28 | +11% | TNF (U/mL) Mean (TNF [5]): 35.0 U/mL |
